From patent publication US20080226587A1, “METHODS AND COMPOSITIONS FOR IMMUNOMODULATION” (priority 2006, published 2008)

System: DDM-reactive J.RT3/CD8-2 cells
Test: T cell stimulation by DDM after proteinase K or pronase treatment
Format: cell-based
Settings: 4 hours at 40° C.
From the text: FIG. 4B is a graph depicting the proliferative response of DDM-reactive J.RT3/CD8-2 cells stimulated in the presence of mock treated DDM, DDM treated with proteinase K, DDM treated with pronase, or no antigen.
The Nex antigen is the second peptidic antigen shown to be presented by CD1. The other one, DDM, is presented by CD1a. Although processing of proteins for presentation on MHC Class I and Class II molecules is well characterized, little is known about processing of CD1-presented peptides. […] DDM has no such cleavage sites for proteases. To examine the protease sensitivity of Nex, Nex and DDM were treated with non-specific proteases and T cell stimulation by each antigen was examined.
Pronase is a mixture of endopeptidases and exopeptidases (carboxypeptidases and aminopeptidases) which digests denatured and native proteins into individual amino acids. Proteinase K is an endopeptidase with a preference for cleavage between an aliphatic, aromatic, or hydrophobic and any other amino acid, however, it will digest any peptidic bond if added in excess and over long incubation periods. […]
To test whether treated Nex mixtures were toxic to T cells, T cell stimulation was measured in the presence of a high concentration (10 μg/ml) of treated Nex and a suboptimal concentration of untreated Nex. […]

didehydroxymycobactin [DDM]
ability to stimulate T cell proliferation after protease treatment: did not diminish
